How the values were obtained:
[1] = excess molar enthalpy (molar enthalpy of mixing); xn = mol fraction of the nth substance listed; settings: 101.3 kPa, Liquid, Flow calorimetry
[2] = Liquid; for mass density: 298.15 K, 101.3 kPa; for Normal boiling temperature: Ebulliometric method (Recirculating still)

OCCO [1,2-ethanediol] + CCO
excess molar enthalpy [kcal/mol], [1]
Settings | 298.15 K | 308.15 K | 323.15 K
x1 = 0.0526 | 0.0266 | 0.0283 | 0.0307
x1 = 0.1045 | 0.0475 | 0.0506 | 0.0547
x1 = 0.1561 | 0.0636 | 0.0678 | 0.0734
x1 = 0.2075 | 0.0758 | 0.0807 | 0.0875
x1 = 0.2587 | 0.084 | 0.0904 | 0.0976
x1 = 0.3096 | 0.0907 | 0.0971 | 0.105
x1 = 0.3604 | 0.0945 | 0.101 | 0.109
x1 = 0.4109 | 0.0962 | 0.103 | 0.111
x1 = 0.4611 | 0.0962 | 0.103 | 0.111
x1 = 0.5112 | 0.0945 | 0.101 | 0.108
x1 = 0.561 | 0.091 | 0.0971 | 0.105
x1 = 0.6106 | 0.0858 | 0.0915 | 0.0986
x1 = 0.66 | 0.0793 | 0.085 | 0.0911
x1 = 0.7092 | 0.0716 | 0.0765 | 0.0822
x1 = 0.7581 | 0.063 | 0.067 | 0.0724
x1 = 0.8069 | 0.0528 | 0.0562 | 0.0601
x1 = 0.8554 | 0.0412 | 0.0432 | 0.0472
x1 = 0.9037 | 0.0277 | 0.0305 | 0.0329
x1 = 0.9518 | 0.0147 | 0.0156 | 0.0169

OCCO [1,2-ethanediol] + CO
[1]
Settings | excess molar enthalpy [kcal/mol]
298.15 K, x1 = 0.037 | 0.00564
298.15 K, x1 = 0.0748 | 0.0106
298.15 K, x1 = 0.1137 | 0.0147
298.15 K, x1 = 0.1538 | 0.0184
298.15 K, x1 = 0.195 | 0.0216
298.15 K, x1 = 0.2374 | 0.024
298.15 K, x1 = 0.2811 | 0.0263
298.15 K, x1 = 0.3262 | 0.0274
298.15 K, x1 = 0.3726 | 0.0287
298.15 K, x1 = 0.4206 | 0.0289
298.15 K, x1 = 0.4701 | 0.0289
298.15 K, x1 = 0.5212 | 0.0282
298.15 K, x1 = 0.574 | 0.027
298.15 K, x1 = 0.6286 | 0.0251
298.15 K, x1 = 0.6851 | 0.0226
298.15 K, x1 = 0.7436 | 0.0197
298.15 K, x1 = 0.8042 | 0.0157
298.15 K, x1 = 0.867 | 0.0114
298.15 K, x1 = 0.9321 | 0.00591
308.15 K, x1 = 0.0372 | 0.00594
308.15 K, x1 = 0.0752 | 0.0113
308.15 K, x1 = 0.1143 | 0.0158
308.15 K, x1 = 0.1545 | 0.0196
308.15 K, x1 = 0.1958 | 0.0234
308.15 K, x1 = 0.2384 | 0.0258
308.15 K, x1 = 0.2822 | 0.0282
308.15 K, x1 = 0.3274 | 0.0298
308.15 K, x1 = 0.3739 | 0.0307
308.15 K, x1 = 0.4219 | 0.0314
308.15 K, x1 = 0.4715 | 0.0311
308.15 K, x1 = 0.5226 | 0.0302
308.15 K, x1 = 0.5754 | 0.0285
308.15 K, x1 = 0.6299 | 0.0269
308.15 K, x1 = 0.6863 | 0.0243
308.15 K, x1 = 0.7447 | 0.021
308.15 K, x1 = 0.8051 | 0.0169
308.15 K, x1 = 0.8676 | 0.0121
308.15 K, x1 = 0.9325 | 0.00632
323.15 K, x1 = 0.0371 | 0.00686
323.15 K, x1 = 0.075 | 0.0127
323.15 K, x1 = 0.114 | 0.0179
323.15 K, x1 = 0.154 | 0.0219
323.15 K, x1 = 0.1953 | 0.0258
323.15 K, x1 = 0.2378 | 0.0291
323.15 K, x1 = 0.2815 | 0.0316
323.15 K, x1 = 0.3266 | 0.0332
323.15 K, x1 = 0.3732 | 0.0343
323.15 K, x1 = 0.4211 | 0.035
323.15 K, x1 = 0.4706 | 0.0344
323.15 K, x1 = 0.5218 | 0.034
323.15 K, x1 = 0.5746 | 0.0322
323.15 K, x1 = 0.6292 | 0.0298
323.15 K, x1 = 0.6856 | 0.0271
323.15 K, x1 = 0.744 | 0.0231
323.15 K, x1 = 0.8046 | 0.0185
323.15 K, x1 = 0.8673 | 0.013
323.15 K, x1 = 0.9323 | 0.00668

CCCCO [butan-1-ol]
[2]
Settings | Normal boiling temperature [°C] | mass density [kg/m3]
– | 117.71 | 805.9

CCC(C)O (stereo unspecified) [butan-2-ol] + OCCO
excess molar enthalpy [kcal/mol], [1]
Settings | 298.15 K | 308.15 K | 323.15 K
x2 = 0.081 | 0.0655 | 0.0583 | 0.0422
x2 = 0.1557 | 0.109 | 0.101 | 0.0777
x2 = 0.226 | 0.136 | 0.128 | 0.103
x2 = 0.2923 | 0.154 | 0.145 | 0.12
x2 = 0.3549 | 0.164 | 0.155 | 0.131
x2 = 0.4142 | 0.167 | 0.161 | 0.137
x2 = 0.4703 | 0.167 | 0.161 | 0.139
x2 = 0.5235 | 0.165 | 0.159 | 0.139
x2 = 0.5741 | 0.16 | 0.154 | 0.136
x2 = 0.6222 | 0.152 | 0.148 | 0.132
x2 = 0.6681 | 0.144 | 0.14 | 0.126
x2 = 0.7117 | 0.133 | 0.13 | 0.117
x2 = 0.7535 | 0.122 | 0.119 | 0.108
x2 = 0.7933 | 0.107 | 0.106 | 0.0979
x2 = 0.8314 | 0.093 | 0.0915 | 0.0851
x2 = 0.868 | 0.0777 | 0.0769 | 0.071
x2 = 0.9029 | 0.0603 | 0.0602 | 0.055
x2 = 0.9365 | 0.0421 | 0.0412 | 0.0373
x2 = 0.9687 | 0.0223 | 0.0221 | 0.0192

CCO [ethanol]
[2]
Settings | Normal boiling temperature [°C] | mass density [kg/m3]
– | 78.26 | 785.2

CO [methanol]
[2]
Settings | Normal boiling temperature [°C] | mass density [kg/m3]
– | 64.47 | 786.4

CCCO [propan-1-ol]
[2]
Settings | Normal boiling temperature [°C] | mass density [kg/m3]
– | 97.16 | 799.8

CC(C)O [propan-2-ol]
[2]
Settings | Normal boiling temperature [°C] | mass density [kg/m3]
– | 82.20 | 781.1

Source: the NIST ThermoML archive (doi:10.1021/je030207i)
